Measured values as given in US12612420B2, “Arginase inhibitors and methods of use thereof” (Molecure S.A., priority 2020, dated 2026).
Counter-ions that a name gives are not always drawn.

Experiments:
[1] = biological target: T1, recombinant human arginase 1 (hARG1) (Homo sapiens, UniProt P05089); assay: Human arginase inhibition assay (colorimetric urea detection), arginase 1; format: biochemical; conditions: IC50 class; hydrochloride salts; 1 h at 37° C., pH 7.4, 10 mM L-arginine, 200 μM MnCl2; read-out: Activity Class (ARG I)
T1 construct: made in house; host or cells: E. coli
T1 sequence (P05089 1-322): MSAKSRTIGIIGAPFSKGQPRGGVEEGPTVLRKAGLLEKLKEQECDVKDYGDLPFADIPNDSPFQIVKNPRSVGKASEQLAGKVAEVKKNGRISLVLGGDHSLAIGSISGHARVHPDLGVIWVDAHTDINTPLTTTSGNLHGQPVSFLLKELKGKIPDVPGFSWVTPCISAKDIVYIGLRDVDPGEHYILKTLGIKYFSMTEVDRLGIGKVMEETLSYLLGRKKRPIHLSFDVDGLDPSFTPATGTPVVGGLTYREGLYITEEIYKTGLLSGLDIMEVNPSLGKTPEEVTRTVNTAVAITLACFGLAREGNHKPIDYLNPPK
Method: (§1) Human Arginase Inhibition Assay
(§2) The inhibitory activities of the compounds of the invention were assessed using recombinant human arginases 1 and 2. Both enzymes were biosynthesized using a prokaryotic expression system (E. coli) and purified by fast protein liquid chromatography (FPLC). The compounds were screened in 96-well plates at the total reaction volume of 100 μL. Briefly, recombinant enzymes were incubated with the tested compounds for 1 h at 37° C. in the reaction buffer (100 mM sodium phosphate buffer, 130 mM NaCl, 1 mg/mL BSA, pH 7.4) containing substrate (L-arginine hydrochloride, 10 mM for hARG1 and 20 mM for hARG2) and cofactor (200 μM MnCl2). The assay is based on the detection of urea, which is generated during the conversion of L-arginine into L-omithine catalyzed by ARG1 or ARG2 (Baggio et al. J Pharmacol. Exp. Ther. 1999, 290, 1409-1416). The colorimetrically detectable product was developed by adding a mixture of reagent A (4 mM oPA, 50 mM boric acid, 1 M sulfuric acid, 0.03% Brij-35) and reagent B (4 mM NED, 50 mM boric acid, 1 M sulfuric acid, 0.03% Brij-35) in equal proportions. The absorbance for each well was measured at 515 nm and the enzyme inhibition was calculated. The urea production in the absence of any tested compound was considered as maximal enzyme activity. The absorbance at the absence of arginase (background) was subtracted from all the values. The normalized values were analyzed using GraphPad Prism 7.0 software by plotting inhibition curves and determining the IC50 values.
(§3) The inhibitory activity classes of the hydrochloride salts of the exemplary compounds according to the invention are presented in Table 1

[2] = biological target: T2, recombinant human arginase 2 (hARG2) (Homo sapiens, UniProt P78540); assay: Human arginase inhibition assay (colorimetric urea detection), arginase 2; format: biochemical; conditions: IC50 class; hydrochloride salts; 1 h at 37° C., pH 7.4, 20 mM L-arginine, 200 μM MnCl2; read-out: Activity Class (ARG II)
T2 construct: made in house; host or cells: E. coli
T2 sequence (P78540 23-354): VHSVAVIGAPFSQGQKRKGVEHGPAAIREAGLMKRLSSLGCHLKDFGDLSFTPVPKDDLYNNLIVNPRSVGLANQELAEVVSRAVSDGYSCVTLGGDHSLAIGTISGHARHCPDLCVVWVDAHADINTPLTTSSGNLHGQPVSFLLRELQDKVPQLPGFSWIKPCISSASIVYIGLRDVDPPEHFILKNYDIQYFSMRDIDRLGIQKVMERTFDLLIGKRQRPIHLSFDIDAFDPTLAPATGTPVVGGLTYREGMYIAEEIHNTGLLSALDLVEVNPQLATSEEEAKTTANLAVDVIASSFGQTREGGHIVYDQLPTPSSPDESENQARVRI
Method: as §1, §2, §3

[3] = biological target: T3, intracellular arginase in macrophages isolated from murine bone marrow (BMDM) (Mus musculus, UniProt Q61176); assay: Cell-based assay: intracellular arginase in bone marrow derived macrophages (BMDM), urea in culture medium; set-up: species or system murine (C57BL/6 mice); conditions: IC50 class; M2-polarised murine BMDM (M-CSF, TGF-β, IL-4), urea in medium after 24 hours
T3 construct: endogenous in cells; host or cells: primary bone-marrow-derived macrophages from C57BL/6 mice, cultured with M-CSF, TGF-β and IL-4
T3 sequence (Q61176 1-323): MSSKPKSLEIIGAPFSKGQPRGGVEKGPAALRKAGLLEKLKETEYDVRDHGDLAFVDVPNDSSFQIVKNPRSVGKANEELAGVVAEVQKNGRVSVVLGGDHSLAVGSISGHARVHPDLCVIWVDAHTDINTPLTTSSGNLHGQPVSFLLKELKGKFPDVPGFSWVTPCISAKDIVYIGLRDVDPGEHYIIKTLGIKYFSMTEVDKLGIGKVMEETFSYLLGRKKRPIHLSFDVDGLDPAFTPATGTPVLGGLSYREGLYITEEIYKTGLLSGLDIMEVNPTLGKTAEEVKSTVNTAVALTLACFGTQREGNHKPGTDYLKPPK
Method: To illustrate the lower cellular activity of the compounds according to the invention versus arginase inhibitors disclosed in U.S. Ser. No. 10/391,077 B2, the selected examples were tested in cell-based assay using murine primary macrophages. Lower intracellular activity observed for the compounds according to the invention may potentially result in lower hepatotoxicity compared to the arginase inhibitors disclosed in U.S. Ser. No. 10/391,077 B2.
Efficacy of Selected Examples Towards Intracellular Arginase in Macrophages Isolated from Murine Bone Marrow—Bone Marrow Derived Macrophages (BMDM)
Murine bone marrow-derived or peritoneal macrophages comprise a convenient in vitro model that enables differentiation of these cells towards M1 or M2 macrophages and further use for the study.
Materials & Methods: The assay was performed according to modified literature protocol (Pineda-Torra I et al., Methods Mol Biol. 2015; 1339:101-9. Mia S et al., Scand J Immunol. 2014 May; 79(5):305-14). The femurs and tibias were isolated from C57BL/6 mice. Bones were cleaned from all attached tissues by using a sterile swab without affecting the bone structure. The sides of the bones were cut off and flush with cold sterile PBS by using 26-G needle S into a 50 mL sterile tube with a cell strainer (Falcon™, Cat. No. U00149), until the bone cavity appeared white. Then, the cells were centrifuged (5 min at 500×G, 4° C.), washed twice with PBS and counted. Cells were plated in Petri dish in density of 1×10^6/mL and cultured in DMEM (Gibco, Cat. No. 31331-029) with 10% FBS, 1% pen-strep and 50 ng/mL M-CSF (PeproTech, Cat. No. 315-02), (37° C., 5% CO2). After five days cells were subcultured into P96 plate (BD, Cat. No. 353072) at the density of 64,000 cells/well in medium supplemented with 50 ng/mL M-CSF, 20 ng/mL TGF-β and 30 ng/mL IL-4 (Biomibo Cat. No. 214-1). One day later exemplary compounds (dissolved in PBS) were added in several different concentrations and 24 hours later the level of urea was measured in the culture medium in each well (Jung D et al., Clin Chem. 1975, 21(8):1136-40). The concentration of urea in the absence of any compound was considered as the maximum enzyme activity. The absorbance of cell culture media (background) was subtracted from all the values.
The IC50 values were calculated using GraphPad Prism 7.0. and assigned into the following classes: A=10-100 μM; and B>100 μM.

Row | IC50 [1] [nM] | IC50 [2] [nM] | IC50 [3] [nM] | Structure (SMILES)
1 | 1 to 99 | > 300 | > 100000 | CC[C@H](C)[C@H](N)C(=O)NC[C@@H]1CC[C@@H](CCB(O)O)C[C@]1(N)C(=O)O [Example 10, (1R,2S,5R)-1-Amino-2-(((2S,3S)-2-amino-3-methylpentanamido)methyl)-5-(2-boronoethyl)cyclohexane-1-carboxylic acid dihydrochloride]
2 | 100 to 199 | 200 to 299 | 10000 to 100000 | CC(C)[C@H](N)C(=O)NC[C@@H]1CC[C@@H](CCB(O)O)C[C@]1(N)C(=O)O [Example 2, (1R,2S,5R)-1-Amino-2-(((S)-2-amino-3-methylbutanamido)methyl)-5-(2-boronoethyl)cyclohexane-1-carboxylic acid dihydrochloride]
3 | 1 to 99 | > 300 | > 100000 | NCC(=O)NC[C@@H]1CC[C@@H](CCB(O)O)C[C@]1(N)C(=O)O [Example 4, (1R,2S,5R)-1-Amino-2-((2-aminoacetamido)methyl)-5-(2-boronoethyl)cyclohexane-1-carboxylic acid dihydrochloride]
4 | 1 to 99 | 200 to 299 | 10000 to 100000 | CSCC[C@H](N)C(=O)NC[C@@H]1CC[C@@H](CCB(O)O)C[C@]1(N)C(=O)O [Example 17, (1R,2S,5R)-1-Amino-2-(((S)-2-amino-4-(methylthio)butanamido)methyl)-5-(2-boronoethyl)cyclohexane-1-carboxylic acid dihydrochloride]
5 | 1 to 99 | > 300 | > 100000 | N[C@]1(C(=O)O)C[C@H](CCB(O)O)CC[C@H]1CNC(=O)[C@@H]1CCCN1 [Example 5, (1R,2S,5R)-1-Amino-5-(2-boronoethyl)-2-(((S)-pyrrolidine-2-carboxamido)methyl)cyclohexane-1-carboxylic acid dihydrochloride]
6 | 1 to 99 | 200 to 299 | > 100000 | CC(C)(C)[C@H](N)C(=O)NC[C@@H]1CC[C@@H](CCB(O)O)C[C@]1(N)C(=O)O [Example 12, (1R,2S,5R)-1-Amino-2-(((S)-2-amino-3,3-dimethylbutanamido)methyl)-5-(2-boronoethyl)cyclohexane-1-carboxylic acid dihydrochloride]
7 | > 300 | > 300 | > 100000 | N[C@@H](Cc1ccccc1)C(=O)NC[C@@H]1CC[C@@H](CCB(O)O)C[C@]1(N)C(=O)O [Example 3, (1R,2S,5R)-1-Amino-2-(((S)-2-amino-3-phenylpropanamido)methyl)-5-(2-boronoethyl)cyclohexane-1-carboxylic acid dihydrochloride]
8 | 1 to 99 | > 300 | > 100000 | N=C(N)NCCC[C@H](N)C(=O)NC[C@@H]1CC[C@@H](CCB(O)O)C[C@]1(N)C(=O)O [Example 13, (1R,2S,5R)-1-Amino-2-(((S)-2-amino-5-guanidinopentanamido)methyl)-5-(2-boronoethyl)cyclohexane-1-carboxylic acid trihydrochloride]
9 | 1 to 99 | 100 to 199 | 10000 to 100000 | CC(C)C[C@H](N)C(=O)NC[C@@H]1CC[C@@H](CCB(O)O)C[C@]1(N)C(=O)O [Example 6, (1R,2S,5R)-1-Amino-2-(((S)-2-amino-4-methylpentanamido)methyl)-5-(2-boronoethyl)cyclohexane-1-carboxylic acid dihydrochloride]
10 | > 300 | > 300 |  | N[C@@H](CC(=O)O)C(=O)NC[C@@H]1CC[C@@H](CCB(O)O)C[C@]1(N)C(=O)O [Example 29, (1R,2S,5R)-1-Amino-2-(((S)-2-amino-3-carboxypropanamido)methyl)-5-(2-boronoethyl)cyclohexane-1-carboxylic acid dihydrochloride]
11 | 1 to 99 | > 300 | > 100000 | NCCCC[C@H](N)C(=O)NC[C@@H]1CC[C@@H](CCB(O)O)C[C@]1(N)C(=O)O [Example 9, (1R,2S,5R)-1-Amino-5-(2-boronoethyl)-2-(((S)-2,6-diaminohexanamido)methyl)cyclohexane-1-carboxylic acid trihydrochloride]
12 | 100 to 199 | > 300 |  | Cn1cc(C[C@@H](N)C(=O)NC[C@@H]2CC[C@@H](CCB(O)O)C[C@]2(N)C(=O)O)c2ccccc21 [Example 26, (1R,2S,5R)-1-Amino-2-(((R)-2-amino-3-(1-methyl-1H-indol-3-yl)propanamido)methyl)-5-(2-boronoethyl)cyclohexane-1-carboxylic acid dihydrochloride]
13 | > 300 | > 300 |  | CN[C@]1(C(=O)O)C[C@H](CCB(O)O)CC[C@H]1CNC(=O)[C@H](C)N [Example 36, (1R,2S,5R)-2-(((S)-2-Aminopropanamido)methyl)-5-(2-boronoethyl)-1-(methylamino)cyclohexane-1-carboxylic acid dihydrochloride]
14 | 200 to 299 | > 300 |  | NC(=O)C[C@H](N)C(=O)NC[C@@H]1CC[C@@H](CCB(O)O)C[C@]1(N)C(=O)O [Example 15, (1R,2S,5R)-1-Amino-5-(2-boronoethyl)-2-(((S)-2,4-diamino-4-oxobutanamido)methyl)cyclohexane-1-carboxylic acid dihydrochloride]
